For data set [1], the system named is HeLa cells. The experiment in a line: MTT cytotoxicity experiment. Format: cell-based. Conditions: 0-20 μM probe, 24 hours.
Data set [2] in a line: Effect of interfering substances on probe fluorescence in PBS/THF (4/1). It counts as physicochemical. Particulars: 10 μM interfering substances. On the procedure: 20 μL of the fluorescent probe stock solution were taken and added dropwise into the PBS/THF (4/1) system, into which 10 μM of other interfering substance solutions were added dropwise, resulint in a final volume is 2 mL. Other interfering substances had little effect on the fluorescence intensity of TzAr-Nap-OH.

Data set [3] is described as follows: Effect of solution pH on probe fluorescence in PBS/THF (4/1). Format: physicochemical. Particulars: pH range 1.64 to 11.45. How it is done:
20 μL of the fluorescent probe stock solution were taken and added dropwise into a PBS/THF (4/1) system, resulting in a final volume of 2 mL.

Data set [4] can be described thus: Spectral response of the probe to solution viscosity (glycerol/MeOH). It counts as physicochemical. Particulars: viscosity increased from 1.4 cp to 955 cp by glycerol/MeOH volume ratio. The text has this: Therefore, it may be concluded that the fluorescence intensity of TzAr-Nap-OH may be used as a reliable indicator for a quantitative viscosity sensor.
Data set [5] deals with HeLa cells. Kind of data set: Cell imaging of response to viscosity (monensin-treated cells). Particulars: probe 10 μM, 30 min, λex=360 nm. Format: cell-based. How it is done: FIG. 9 is a fluorescence image of Hela cells; (a-c) HeLa cells were cultured with TzAr-Nap-OH (10 μM) for 30 minutes; (d-f) HeLa cells were treated with monensin (Mo) and incubated with the TzAr-Nap-OH probe for 30 minutes; λex=360 nm, slit=5 nm, scale bar=20 μm.
Images a-c were obtained by treating HeLa cells with TzAr-Nap-OH (10 μM) for 30 mins. HeLa cells were first treated with monensin to increase cell viscosity, and then treated with TzAr-Nap-OH (10 μM) to obtain images d-f.

Take `Oc1ccc2cc(/C=C/c3nc(-c4ccccc4)nc(-c4ccccc4)n3)ccc2c1` [TzAr-Nap-OH]: the “survival rate (cell viability)” value in data set [1] is “over 81%”. Also, the “effect of other interfering substances on fluorescence intensity” value in data set [2] is “little effect”. For the same compound, the “change of fluorescence intensity with pH” value in data set [3] is given as “did not change significantly”. The “increase of fluorescence intensity at 520 nm” value in data set [4] was approximately 15 times. In data set [5], the “fluorescence intensity of monensin-treated cells versus normal cells” value was “significantly higher”.

Source of the values: US20240302280A1, “PREPARATION METHOD AND APPLICATION OF VISCOSITY FLUORESCENT PROBE” (Zhengzhou University of Light Industry, priority 2023, published 2024).
